Assay results published in PubChem BioAssay AID2060511 (Molecular Pharmacology Branch, DTP, NCI, 2025).
pIC50: −log10 of the molar value.

Tested on: 422866-222-R5-J1-PDC spheroids with HUVEC/MSC, viability
Experiment: Anticancer human tumor 422866-222-R5-J1-PDC patient-derived pancreatic adenocarcinoma cell line growth inhibition [GQUAD]
Settings: for pIC50: curve of first compound; for viability, T/C: stronger effect = lower value
Description: DNA G-quadruplex Stabilizer Agents in Combinations in Complex Spheroids
A high-throughput screen of multi-cell type tumor spheroids was designed to identify active combinations of DNA G-quadruplex stabilizer agents and targeted small molecules. Complex spheroids include a stromal component modeled by human endothelial cells (HUVEC) and fibroblasts modeled by human mesenchymal stem cells (MSCs). The concentration ranges selected for each drug and investigational agent were based upon clinically achievable concentrations if the clinical Cmax of the agent was known.
Compounds. The drugs and investigational agents: pidnarulex (CX-5461; NSC782164), APTO-253 (NSC789042), BRACO-19 (NSC847499), peposertib (NSC802822), ceralasertib (NSC780249), elimusertib (NSC800525), camonsertib (NSC841442), AZD-1390 (NSC803789), olaparib (NSC753686), talazoparib (NSC767125), ART-558 (NSC835418), sotorasib (NSC818433), MRTX-1133 (NSC836407), SN-38 (NSC673596), topotecan (NSC609699), etoposide (NSC141540), doxorubicin (NSC123127), gemcitabine (NSC613327), 5-fluorouracil (NSC19893), paclitaxel (NSC125973), vemurafenib (NSC761431), panobinostat (NSC761190), R-306465 (JNJ-16241199; NSC773264), adavosertib (NSC754352), TP-3654 (NSC805149), carboplatin (NSC241240), KSQ-4279 (NSC840948), and staurosporine (NSC755774) were obtained from the National Cancer Institute (NCI) Developmental Therapeutics Program Chemical Repository (34). The FDA-approved anticancer drug set is available from the NCI Developmental Therapeutics Program. […] The stock solutions were prepared in dimethyl sulfoxide (DMSO, Sigma-Aldrich, St. Louis, MO, cat. D2650) at 800-fold the tested concentration and stored at -70 degrees C prior to their use. All drugs and investigational agents were tested over a range starting from a high concentration at or near the clinical Cmax and decreasing in half-log increments. If the clinical Cmax for an agent had not been determined, the highest concentration tested was 10 microM.
2.3 Cell Culture. All cells were maintained in an incubator at 37 degrees C and 5% CO2 with 95% humidity. The PDC lines were cultured according to standard operating procedures established by the NCI PDMR. All PDCs were thawed and cultured in Matrigel-coated flasks prepared with a working solution of 1X Ham's F-12 nutrient mix, without supplementation (Invitrogen, cat. 11765054), 100 U/mL penicillin-streptomycin (Invitrogen, cat. 15140122), and 2.5% Matrigel (Corning Inc., cat. 354248) for the first three passages. The 857933-349-R-J2-PDC line was cultured in 6C/Colon 1B media, which includes advanced DMEM/F-12 (Thermo Fisher Scientific, cat. 12634028), 10 mM HEPES (Thermo Fisher Scientific, cat. 15630080), 1X GlutaMAX supplement (Thermo Fisher Scientific, cat. 35050061), 0.1 mg/mL primocin (InvivoGen, cat. ant-pm-2), 10% defined fetal bovine serum, heat inactivated (HyClone Laboratories Inc., cat. SH30070.03HI), 50% L-WRN conditioned media (ATCC, cat. CRL-3276), 1.25 mM N-Acetyl-L-cysteine (Sigma-Aldrich, cat. A9165), 10 mM nicotinamide (Sigma-Aldrich, cat. N0636), 1X B-27 supplement (Thermo Fisher Scientific, cat. 17504044), 1X N-2 supplement (Thermo Fisher Scientific, cat. 17502048), 10 microM Y-27632 dihydrochloride (Tocris Bioscience, cat. 1254), and 50 ng/mL human EGF recombinant protein (Thermo Fisher Scientific, cat. PHG0311). The 485176-168-R4-J1-PDC line was cultured in Panc media, which includes all 6C/Colon 1B media components plus 100 ng/mL human FGF-10 (Thermo Fisher Scientific, cat. 100-26), 500 nM SB-431542 (Selleckchem, cat. S1067), and gastrin (Tocris, cat. 3006).
[…]
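Also: spheroids exposed to compounds for seven days before reading.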
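For viability, T/C in this document: percent viability relative to DMSO vehicle control taken as 100%.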

Compound: C=CC(=O)N1CCN(c2nc(=O)n(-c3c(C)ccnc3C(C)C)c3nc(-c4c(O)cccc4F)c(F)cc23)C(C)C1 (configuration not stated) + Cc1cnc(CNC(=O)c2c(=O)c3ccc(N4CCCN(C)CC4)nc3n3c2sc2ccccc23)cn1
- pIC50 (second compound 0.0316 µM): > 7.50
- pIC50 (second compound 0.1 µM): > 7.50
- pIC50 (second compound 0.316 µM): > 7.50
- pIC50 (second compound 1 µM): > 7.50
- pIC50 (second compound 3.16 µM): > 7.50
- pIC50 (second compound 10 µM): > 7.50
- viability, T/C (second compound 0.0316 µM, first compound 0.0316 µM): 41.2%
- viability, T/C (second compound 0.0316 µM, first compound 0.1 µM): 32.1%
- viability, T/C (second compound 0.0316 µM, first compound 0.316 µM): 28.1%
- viability, T/C (second compound 0.0316 µM, first compound 1 µM): 19.9%
- viability, T/C (second compound 0.0316 µM, first compound 3.16 µM): 33.4%
- viability, T/C (second compound 0.0316 µM, first compound 10 µM): 30.6%
- viability, T/C (second compound 0.1 µM, first compound 0.0316 µM): 40.4%
- viability, T/C (second compound 0.1 µM, first compound 0.1 µM): 30.4%
- viability, T/C (second compound 0.1 µM, first compound 0.316 µM): 26.7%
- viability, T/C (second compound 0.1 µM, first compound 1 µM): 25.7%
- viability, T/C (second compound 0.1 µM, first compound 3.16 µM): 32.6%
- viability, T/C (second compound 0.1 µM, first compound 10 µM): 30.6%
- viability, T/C (second compound 0.316 µM, first compound 0.0316 µM): 36.8%
- viability, T/C (second compound 0.316 µM, first compound 0.1 µM): 30.4%
- viability, T/C (second compound 0.316 µM, first compound 0.316 µM): 27.2%
- viability, T/C (second compound 0.316 µM, first compound 1 µM): 29%
- viability, T/C (second compound 0.316 µM, first compound 3.16 µM): 34%
- viability, T/C (second compound 0.316 µM, first compound 10 µM): 33.7%
- viability, T/C (second compound 1 µM, first compound 0.0316 µM): 29.3%
- viability, T/C (second compound 1 µM, first compound 0.1 µM): 28.6%
- viability, T/C (second compound 1 µM, first compound 0.316 µM): 30.2%
- viability, T/C (second compound 1 µM, first compound 1 µM): 28.1%
- viability, T/C (second compound 1 µM, first compound 3.16 µM): 35.9%
- viability, T/C (second compound 1 µM, first compound 10 µM): 37.7%
- viability, T/C (second compound 3.16 µM, first compound 0.0316 µM): 32%
- viability, T/C (second compound 3.16 µM, first compound 0.1 µM): 32.4%
- viability, T/C (second compound 3.16 µM, first compound 0.316 µM): 29.8%
- viability, T/C (second compound 3.16 µM, first compound 1 µM): 27.9%
- viability, T/C (second compound 3.16 µM, first compound 3.16 µM): 37.3%
- viability, T/C (second compound 3.16 µM, first compound 10 µM): 36.4%
- viability, T/C (second compound 10 µM, first compound 0.0316 µM): 30.5%
- viability, T/C (second compound 10 µM, first compound 0.1 µM): 23.3%
- viability, T/C (second compound 10 µM, first compound 0.316 µM): 28.9%
- viability, T/C (second compound 10 µM, first compound 1 µM): 27.8%
- viability, T/C (second compound 10 µM, first compound 3.16 µM): 33.5%
- viability, T/C (second compound 10 µM, first compound 10 µM): 34.2%
